Results on 14 compounds are retold here after patent US7211576B2, “Diaminothiazoles” (Hoffmann-La Roche Inc., priority 2004, dated 2007).

What all share (format): biochemical
One test has as its target human cyclin D1-CDK4 (Homo sapiens, UniProt P11802). In words: FlashPlate kinase assay, cyclin D1-CDK4. The conditions noted are these: Rb protein substrate, 1 μM ATP, 33P-ATP, 30 minutes room temperature; read-out: CDK4 IC50. As for the experimental part:
To determine inhibition of Cdk4, Cdk2 and Cdk1 activity, kinase assays were conducted using FlashPlate™ assays (NEN™-Life Science Products). FlashPlate assays were performed using recombinant human cyclin B-CDK1, human cyclin E-CDK2 or human cyclin D1-CDK4 complexes. GST-cyclinE (GST-cycE), CDK2, GST-cyclinB (GST-cycB), CDK1, GST-CDK4 and cyclin D1 (cycD1) cDNA clones in baculovirus vectors were provided by Dr. W. Harper at the Baylor College of Medicine, Houston, Tex.
(§1) The expression of the 62Kd protein was under the control of an IPTG inducible promoter in an M15 E. coli strain. Cells were lysed by sonication and purification was carried out by binding lysates at pH 8.0 to a Ni-chelated agarose column pretreated with 1 mM imidazole. The resin was then washed several times with incrementally decreasing pH buffers to pH 6.0, and eluted with 500 mM imidazole. Eluted protein was dialysed against 20 mM HEPES pH 7.5, 30% glycerol, 200 mM NaCl, and 1 mM DTT. Purified Rb fusion protein stocks were quantitated for protein concentration, aliquoted, and stored at −70° C.
(§2) For all three kinase assays reported herein, 96-well FlashPlates were coated with Rb protein at 10 μg/ml, using 100 μl per well. Plates were incubated at 4° C. overnight or at room temperature for 3 hours on a shaker. To control for nonspecific phosphorylation, one row of wells was coated with 100 μl/well coating buffer (20 mM HEPES, 0.2 M NaCl). Plates were then washed twice with wash buffer (0.01% Tween 20 in phosphate-buffered saline). Compounds to be tested (“test compounds”) were added to the wells at 5× final concentration. Reactions were initiated by immediate addition of 40 μl reaction mix (25 mM HEPES, 20 mM MgCl2, 0.002% Tween 20, 2 mM DTT, 1 μM ATP, 4 nM ^33P-ATP) and a sufficient amount of enzyme to give counts that were at least 10-fold above background. Plates were incubated at room temperature on a shaker for 30 minutes. Plates were washed four times with the wash buffer, sealed, and counted on the TopCount scintillation counter (Packard Instrument Co., Downers Grove, Ill.]. The percent inhibition of Rb phosphorylation, which is a measure of the inhibition of CDK activity, was determined according to the following formula:
[formula] where “test compound” refers to the average counts per minute of the test duplicates, “nonspecific” refers to the average counts per minute when no CyclinD/Cdk4, etc., was added, and “total” refers to the average counts per minute when no compound was added.

The target of a further test is human cyclin B-CDK1 (Homo sapiens, UniProt P06493). Nature of the test: FlashPlate kinase assay, cyclin B-CDK1. Conditions: Rb protein substrate, 1 μM ATP, 33P-ATP, 30 minutes room temperature. As for the experimental part:
(§3) To determine inhibition of Cdk4, Cdk2 and Cdk1 activity, kinase assays were conducted using FlashPlate™ assays (NEN™-Life Science Products). FlashPlate assays were performed using recombinant human cyclin B-CDK1, human cyclin E-CDK2 or human cyclin D1-CDK4 complexes. GST-cyclinE (GST-cycE), CDK2, GST-cyclinB (GST-cycB), CDK1, GST-CDK4 and cyclin D1 (cycD1) cDNA clones in baculovirus vectors were provided by Dr. W. Harper at the Baylor College of Medicine, Houston, Tex. Proteins were co-expressed in High Five™ insect cells and the complex was purified on glutathione Sepharose resin (Pharmacia, Piscataway, N.J.) as previously described (Harper, J. W. et al. Cell 1993, 75, 805–816). A 6×-Histidine tagged truncated form of retinoblastoma (Rb) protein (amino acid 386–928) was used as the substrate for the cycD1-CDK4, cycB-CDK1 and the cycE-CDK2 assays (the expression plasmid was provided by Dr. Veronica Sullivan, Department of Molecular Virology, Roche Research Centre, Welwyn Garden City, United Kingdom). The Rb protein is a natural substrate for phosphorylation by CDK4, CDK2 and CDK1 (see Herwig and Strauss Eur. J. Biochem. Vol. 246 (1997) pp. 581–601 and the references cited therein).
as §1, §2
(§4) [formula] where “test compound” refers to the average counts per minute of the test duplicates, “nonspecific” refers to the average counts per minute when no CyclinD/Cdk4, etc., was added, and “total” refers to the average counts per minute when no compound was added. The IC50 value is the concentration of test compound that reduces by 50% the protein-kinase induced incorporation of the radiolabel under the test conditions described.

The next test deals with human cyclin E-CDK2 (Homo sapiens, UniProt P24941). In words: FlashPlate kinase assay, cyclin E-CDK2. Conditions: Rb protein substrate, 1 μM ATP, 33P-ATP, 30 minutes room temperature. As for the experimental part: as §3, §1, §2, §4

Sequence of human cyclin B-CDK1 (P06493 whole entry): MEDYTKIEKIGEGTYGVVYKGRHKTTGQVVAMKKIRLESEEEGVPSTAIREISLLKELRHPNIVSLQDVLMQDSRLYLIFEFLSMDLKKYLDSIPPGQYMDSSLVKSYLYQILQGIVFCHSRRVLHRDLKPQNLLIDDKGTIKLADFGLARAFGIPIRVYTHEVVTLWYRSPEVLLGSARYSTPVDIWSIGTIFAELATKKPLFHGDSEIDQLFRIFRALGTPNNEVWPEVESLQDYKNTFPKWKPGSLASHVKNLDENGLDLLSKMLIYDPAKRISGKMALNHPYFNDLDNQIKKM
Sequence of human cyclin B-CDK1 (P14635 whole entry partner): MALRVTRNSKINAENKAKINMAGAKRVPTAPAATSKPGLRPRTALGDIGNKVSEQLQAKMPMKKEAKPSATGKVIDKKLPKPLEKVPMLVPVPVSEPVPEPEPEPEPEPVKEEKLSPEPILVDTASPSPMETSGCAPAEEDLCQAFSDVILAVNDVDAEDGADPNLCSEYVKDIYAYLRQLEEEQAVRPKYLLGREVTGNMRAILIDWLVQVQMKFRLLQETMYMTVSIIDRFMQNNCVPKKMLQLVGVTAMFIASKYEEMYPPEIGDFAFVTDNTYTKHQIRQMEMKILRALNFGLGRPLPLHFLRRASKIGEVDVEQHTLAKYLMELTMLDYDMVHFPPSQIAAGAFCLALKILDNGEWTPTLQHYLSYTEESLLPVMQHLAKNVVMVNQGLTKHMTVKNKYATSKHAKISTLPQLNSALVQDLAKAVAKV
Sequence of human cyclin D1-CDK4 (P11802 whole entry): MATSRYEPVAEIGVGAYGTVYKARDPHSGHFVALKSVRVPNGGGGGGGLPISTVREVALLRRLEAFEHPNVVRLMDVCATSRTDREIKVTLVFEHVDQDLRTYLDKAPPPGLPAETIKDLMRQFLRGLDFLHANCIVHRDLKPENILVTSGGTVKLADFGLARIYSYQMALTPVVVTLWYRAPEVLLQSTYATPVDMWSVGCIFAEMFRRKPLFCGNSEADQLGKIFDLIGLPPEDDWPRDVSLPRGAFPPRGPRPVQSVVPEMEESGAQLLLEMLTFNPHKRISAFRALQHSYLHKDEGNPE
Sequence of human cyclin D1-CDK4 (P24385 whole entry partner): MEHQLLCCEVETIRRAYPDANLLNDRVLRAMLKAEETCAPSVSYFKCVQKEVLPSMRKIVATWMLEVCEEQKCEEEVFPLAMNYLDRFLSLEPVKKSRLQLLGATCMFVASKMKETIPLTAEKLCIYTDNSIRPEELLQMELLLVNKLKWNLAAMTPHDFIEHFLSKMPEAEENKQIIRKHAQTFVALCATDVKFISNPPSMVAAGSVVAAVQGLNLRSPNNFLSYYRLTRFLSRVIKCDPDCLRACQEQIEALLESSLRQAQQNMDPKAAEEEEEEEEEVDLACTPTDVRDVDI

As to `CN(C)C1CCN(c2ccc(Nc3nc(N)c(C(=O)c4ccc(O)cc4)s3)cc2)CC1` [Example 46, {4-Amino-2-[4-(4-dimethylamino-piperidin-1-yl)-phenylamino]-thiazol-5-yl}-(4-hydroxy-phenyl)-methanone], the IC50 at human cyclin D1-CDK4 was determined as 55 nM; against human cyclin B-CDK1 it was 3810 nM; at human cyclin E-CDK2 it was 5670 nM.
Consider `Nc1nc(Nc2ccc(N3CCC(N4CCCCC4)CC3)cc2)sc1C(=O)c1ccc(F)c(F)c1` [Example 59, [4-Amino-2-(4-[1,4′]bipiperidinyl-1′-yl-phenylamino)-thiazol-5-yl]-(3,4-difluoro-phenyl)-methanone], for which the IC50 at human cyclin D1-CDK4 is 61 nM; at human cyclin B-CDK1, 4630 nM; against human cyclin E-CDK2 it was 3090 nM.
On the same counts, the results for `COc1cccc(C(=O)c2sc(Nc3ccc(N4CCC(N(C)C)CC4)cc3)nc2N)c1[N+](=O)[O-]` [Example 49, {4-Amino-2-[4-(4-dimethylamino-piperidin-1-yl)-phenylamino]-thiazol-5-yl}-(3-methoxy-2-nitro-phenyl)-methanone] are 8 nM, 5 nM and 136 nM.
Regarding `Nc1nc(Nc2ccc(N3CCC(N4CCCCC4)CC3)cc2)sc1C(=O)c1cc(F)cc(F)c1` [Example 57, [4-Amino-2-(4-[1,4′]bipiperidinyl-1′-yl-phenylamino)-thiazol-5-yl]-(3,5-difluoro-phenyl)-methanone], the values for the half-inhibitory concentration (IC50) at human cyclin D1-CDK4, on human cyclin B-CDK1 and at human cyclin E-CDK2 were 86 nM, 3560 nM and 8030 nM, respectively.
On to `Nc1nc(Nc2ccc(N3CCC(N4CCCC4)CC3)cc2)sc1C(=O)c1ccc(O)cc1` [Example 28, {4-Amino-2-[4-(4-pyrrolidin-1-yl-piperidin-1-yl)-phenylamino]-thiazol-5-yl}-(4-hydroxy-phenyl)-methanone], for which the IC50 at human cyclin D1-CDK4 was 53 nM; at human cyclin B-CDK1, 1170 nM; against human cyclin E-CDK2 it was 4180 nM.
Consider `CN(C)C1CCN(c2ccc(Nc3nc(N)c(C(=O)c4cc(F)cc(F)c4)s3)cc2)CC1` [Example 82, {4-Amino-2-[4-(4-dimethylamino-piperidin-1-yl)-phenylamino]-thiazol-5-yl}-(3,5-difluoro-phenyl)-methanone], for which the half-inhibitory concentration (IC50) is 84 nM on human cyclin D1-CDK4, 4270 nM at human cyclin B-CDK1 and 7840 nM against human cyclin E-CDK2.
As for `COc1ccc(C(=O)c2sc(Nc3ccc(N4CCC(N5CCOCC5)CC4)cc3)nc2N)cc1[N+](=O)[O-]` [Example 106, {4-Amino-2-[4-(4-morpholin-4-yl-piperidin-1-yl)-phenylamino]-thiazol-5-yl}-(4-methoxy-3-nitro-phenyl)-methanone], the values for the IC50 at human cyclin D1-CDK4, at human cyclin B-CDK1 and on human cyclin E-CDK2 were 52 nM, 2270 nM and 4830 nM, respectively.
On the same counts, the results for `Nc1nc(Nc2ccc(N3CCC(N4CCOCC4)CC3)cc2)sc1C(=O)c1cccc(O)c1` [Example 103, {4-Amino-2-[4-(4-morpholin-4-yl-piperidin-1-yl)-phenylamino]-thiazol-5-yl}-(3-hydroxy-phenyl)-methanone] are 36 nM, 1520 nM and 3340 nM.
Regarding `CN(C)C1CCN(c2ccc(Nc3nc(N)c(C(=O)c4ccc(Cl)c([N+](=O)[O-])c4)s3)cc2)CC1` [Example 87, {4-Amino-2-[4-(4-dimethylamino-piperidin-1-yl)-phenylamino]-thiazol-5-yl}-(4-chloro-3-nitro-phenyl)-methanone], the IC50 on human cyclin D1-CDK4 stood at 133 nM; on human cyclin B-CDK1 it was 2990 nM; on human cyclin E-CDK2, 4440 nM.
On the same counts, the results for `COc1ccc(C(=O)c2sc(Nc3ccc(N4CCC(N(C)C)CC4)cc3)nc2N)cc1F` [Example 42, {4-Amino-2-[4-(4-dimethylamino-piperidin-1-yl)-phenylamino]-thiazol-5-yl}-(3-fluoro-4-methoxy-phenyl)-methanone] are 86 nM, 5790 nM and 5830 nM.
The matching figures for `Nc1nc(Nc2ccc(N3CCC(N4CCCCC4)CC3)cc2)sc1C(=O)c1cccc([N+](=O)[O-])c1` [Example 89, [4-Amino-2-(4-[1,4′]bipiperidinyl-1′-yl-phenylamino)-thiazol-5-yl]-(3-nitro-phenyl)-methanone]: 100 nM, 510 nM and 2260 nM.
On the same counts, the results for `CN(C)C1CCN(c2ccc(Nc3nc(N)c(C(=O)c4cccc(C#N)c4)s3)cc2)CC1` [Example 88, 3-{4-Amino-2-[4-(4-dimethylamino-piperidin-1-yl)-phenylamino]-thiazole-5-carbonyl}-benzonitrile] are 15 nM, 940 nM and 3910 nM.
Take `Nc1nc(Nc2ccc(N3CCC(N4CCCC(O)C4)CC3)cc2)sc1C(=O)c1ccc(F)c(F)c1` (stereo not drawn) [Example 75, {4-Amino-2-[4-(3-hydroxy-[1,4′]bipiperidinyl-1′-yl)-phenylamino]-thiazol-5-yl}-(3,4-difluoro-phenyl)-methanone]: the results for the IC50 at human cyclin D1-CDK4, on human cyclin B-CDK1 and on human cyclin E-CDK2 were 58 nM, 4050 nM and 8680 nM, respectively.
The matching figures for `Nc1nc(Nc2ccc(N3CCC(N4CCCC4)CC3)cc2)sc1C(=O)c1cccc(O)c1` [Example 96, {4-Amino-2-[4-(4-pyrrolidin-1-yl-piperidin-1-yl)-phenylamino]-thiazol-5-yl}-(3-hydroxy-phenyl)-methanone]: 37 nM, 1180 nM and 4060 nM.

A word on the IC50: it is the concentration at which inhibition is half-maximal.
